Data: patent publication US20190209472A1, “FORMULATIONS FOR DERMAL DELIVERY OF POLYMER CONJUGATES OF INDOLOCARBAZOLE COMPOUNDS WITH REDUCED EXPOSURE” (Sienna Biopharmaceuticals, Inc., priority 2017, published 2019)

System: pruritus associated with psoriasis vulgaris
Experiment: Phase 1b maximal use study: exploratory efficacy (I-NRS, PASI, IGA, BSA)
Type: in vivo, human
From the text: Efficacy Evaluations: Change from baseline at each study visit in the I-NRS; Change from baseline at each study visit in the Psoriasis Area and Severity Index ([…]) score; PASI-75: response defined as a reduction of ≥75% from baseline at each study visit on the PASI; PASI-50: response defined as a reduction of ≥50% from baseline at each study visit on the PASI; Change from baseline at each study visit in the Investigator Global Assessment (IGA); Proportion of subjects with a ≥1-grade decrease on the IGA at each study visit; Proportion of subjects with a ≥2-grade decrease on the IGA at each study visit; and Change from baseline at each study visit in BSA affected by psoriasis.
Subject Assessments—Itch Numeric Rating Scale: The I-NRS is a 1 item daily PRO measure that the subjects use to assess pruritus severity at its worst in the 24 hours prior to the assessment based on an 11-point numeric rating scale ranging from 0 (“no itching at all”) to 10 (“worst possible itching”). The I-NRS assesses overall pruritus severity. An I-NRS score of at least 4 is required to be eligible for the study. The investigator will evaluate subject eligibility based on itch associated with PV plaques at Screening. The Baseline measurement will be collected on Study Day 1 prior to study drug administration. The change from Baseline at each study visit will be determined.
Investigator Assessments: Investigator assessments include: BSA affected by psoriasis; IGA of overall psoriasis (Apremilast (Otezla) CDER Medical Review of Celgene NDA, 2014. Accessdata.fda.gov. Accessed Aug. 8, 2017.); and PASI (Fredriksson T, Pettersson U. Severe psoriasis—oral therapy with a new retinoid. Dermatologica. 1978; 157(4):238-244.).
Body Surface Area Affected by Psoriasis: Assessment of the percentage of a subject's BSA affected by psoriasis will be made by best estimates of the investigator, using the “handprint” method where 1%=1 subject handprint. At screening and baseline this should be ≥20% of BSA. The change from baseline BSA affected by psoriasis will be determined.
Investigator Global Assessment: The IGA is a site-based clinician-reported outcome measure that assesses the overall severity of psoriasis by evaluating induration (plaque elevation), erythema, and desquamation (scaling) on a 5-point scale from 0 to 4, where 0=Clear to 4=Severe. The investigator will make this assessment to calculate the overall improvement in psoriasis (the proportion of subjects achieving a rating of “Clear” or “Almost Clear” and at least a 2-point decrease [improvement] on the 5-point scale) using the IGA. The proportion of subjects achieving at least a 1-grade and 2-grade decrease from baseline will also be calculated.
Psoriasis Area and Severity Index: The PASI score is a site-based ClinRO by which a weighted sum of erythema, scaling, and induration/thickness scores over different regions of the body is determined, using the algorithm given in Fredriksson T, Pettersson U., Dermatologica. 1978; 157(4):238-244.). Each symptom will be scored on a 5-point scale from 0 to 4, where 0=Clear and 4=Very marked. The change from Baseline in the PASI score, and the percentages of subjects who have achieved a ≥75% or ≥50% reduction from baseline (PASI-75 and PASI-50, respectively), will be determined.

(9S, 10R, 12R)-10-(3′-mPEG2000-1′,3′-oxazolidine-2′,4′-dione)-2,3,9,10,11,12-hexahydro-9-methyl-1-oxo-9,12-epoxy-1H-diindolo[1,2,3-fg:3′,2′,1′-k,l]pyrrolo[3,4-i][1,6] benzodiazocine] [CT327]
IGA 1-grade, % of subjects (Week 4): (30%)
IGA 2-grade, % of subjects (Week 4): (13.3%)
NRS 3-grade, % of subjects (Week 4): (60.0%)
NRS 50, % of subjects (Week 4): (46.7%)
NRS (% change from baseline), mean (Week 4): −41.35%
PASI 50, % of subjects (Week 4): (33.3%)
PASI 75, % of subjects (Week 4): (10.0%)
PASI (change from baseline), mean (Week 4): −6.44
NRS (change from baseline), mean (Week 4, 0.5% SNA-120 (w/w) ointment twice daily, open label): −3.4
Subjects with at least a 4-grade improvement in the Itch Numeric Rating Scale (I-NRS) (post hoc analysis): approximately 57% of subjects
